Data on ten compounds can be found in ChEMBL document CHEMBL4627316, “Design and synthesis of potent PAR-1 antagonists based on vorapaxar” (Bioorg Med Chem Lett, 2020).

Data set [1] addresses T1, Proteinase-activated receptor 1 (Homo sapiens) (UniProt P25116).
T1 sequence (whole entry): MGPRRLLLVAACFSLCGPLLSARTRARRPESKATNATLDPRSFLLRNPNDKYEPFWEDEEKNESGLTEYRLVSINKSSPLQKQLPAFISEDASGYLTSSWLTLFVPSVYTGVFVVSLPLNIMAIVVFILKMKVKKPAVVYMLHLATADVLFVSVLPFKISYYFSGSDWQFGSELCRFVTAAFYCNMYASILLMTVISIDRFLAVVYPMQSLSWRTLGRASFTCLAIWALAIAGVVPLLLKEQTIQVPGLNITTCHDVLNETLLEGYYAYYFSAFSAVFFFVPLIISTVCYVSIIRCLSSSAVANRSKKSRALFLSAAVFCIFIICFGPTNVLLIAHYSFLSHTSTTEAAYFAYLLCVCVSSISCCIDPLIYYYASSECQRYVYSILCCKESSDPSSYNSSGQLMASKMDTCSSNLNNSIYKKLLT
Description: Antagonist activity at human PAR1 expressed in KNRK cells assessed as inhibition of agonist-induced intracellular calcium mobilization at 10^-7 M by fluorimetric assay relative to control. In kind it is functional, cell-based.

Data set [2] in a line: Ratio of drug concentration in brain to plasma in Sprague-Dawley rat at 5 mg/kg, po measured at 8 hrs. In kind it is ADME, organism-based. As to conditions: read-out: BPR.
The target of data set [3] is T1, Proteinase-activated receptor 1 (Homo sapiens). Description: Antagonist activity at human PAR1 expressed in KNRK cells assessed as inhibition of agonist-induced intracellular calcium mobilization at 10^-6 M by fluorimetric assay relative to control. In kind it is functional, cell-based. On the technique in general: Calcium assays in cells follow changes in intracellular calcium, usually with a dye or a luminescent sensor.

Data set [4] is described as follows: AUC (0 to infinity) in Sprague-Dawley rat at 5 mg/kg, po or 1 mg/kg, iv. In kind it is ADME, organism-based. The conditions noted are these: in vivo.
Data set [5] is described as follows: Cmax in Sprague-Dawley rat at 5 mg/kg, po or 1 mg/kg, iv. Format: ADME, organism-based. As to conditions: in vivo.
A short description of data set [6]: Oral bioavailability in Sprague-Dawley rat at 5 mg/kg. In kind it is ADME, organism-based. As to conditions: in vivo.
The nature of data set [7]: Half life in Sprague-Dawley rat at 5 mg/kg, po or 1 mg/kg, iv. In kind it is ADME, organism-based. The conditions noted are these: in vivo.
The target in data set [8] is T2, Proteinase-activated receptor 1 (Homo sapiens, UniProt P25116).
T2 sequence (P25116 whole entry): T1 sequence (whole entry)
Description: Antagonist activity at human PAR1 expressed in KNRK cells assessed as inhibition of agonist-induced intracellular calcium mobilization by fluorimetric assay. In kind it is functional, cell-based.

The target in data set [9] is T1, Proteinase-activated receptor 1 (Homo sapiens). Description: Antagonist activity at human PAR1 expressed in KNRK cells assessed as inhibition of agonist-induced intracellular calcium mobilization at 10^-5 M by fluorimetric assay relative to control. Format: functional, cell-based.

One may read the inhibition as the relative decrease from the control value, in per cent. In general, AUC(0-inf) refers to total exposure, with the tail of the curve extrapolated. Usually Cmax stands for the maximum level reached in the sampled fluid or tissue. The bioavailability is dose-corrected exposure relative to a reference, in per cent. A high value points to much systemic uptake. As usually defined, the half-life is the time needed for the level to fall by half in the phase considered. Usually IC50 stands for the point on the concentration scale where inhibition reaches its midpoint. On to `C[C@H]1OC(=O)[C@]2(NCC(=O)O)C[C@@H]3CCCC[C@H]3[C@H](/C=C/c3ccc(-c4cccc(F)c4)cn3)[C@H]12`, for which the inhibition in data set [1] amounted to 23%; in [3], 61%; in [9], 100%. The Kp at 8 h in [2] was found to be 0.68. Further, the total exposure AUC(0-inf) in [4] worked out at 5000 ng·h/mL. In data set [5], this compound gave a Cmax of 1140 ng/mL. This compound also had a bioavailability in [6] of 70%. The half-life in data set [7] is 2.9 h. Besides, the concentration for half-maximal inhibition (IC50) in data set [8] worked out at 1100 nM.

As to `C[C@H]1OC(=O)[C@]2(NCC#N)C[C@@H]3CCCC[C@H]3[C@H](/C=C/c3ccc(-c4cccc(F)c4)cn3)[C@H]12`, the inhibition in [1] was -4%; in data set [3], 92%; in [9], 99%. The Kp at 8 h in data set [2] amounted to 0.35. This compound also showed an area under the curve AUC(0-inf) in data set [4] of 5140 ng·h/mL. The same compound returned a Cmax in [5] of 2310 ng/mL. For the same compound, in [6], the bioavailability amounted to 34%. In addition, the half-life in data set [7] is 8.5 h. Further, the IC50 in [8] is 760 nM.

As for `CCOC(=O)N[C@@H]1CC[C@@H]2[C@@H](C1)C[C@H]1C(=O)O[C@H](C)[C@H]1[C@H]2/C=C/c1ccc(-c2ccccn2)cc1`, the inhibition in data set [1] is 5%; in data set [3], 40%; in [9], 66%. Also, in data set [2], the Kp at 8 h is 0.54. In addition, in data set [4], the AUC(0-inf) stood at 7100 ng·h/mL. The compound further showed a Cmax in data set [5] of 710 ng/mL. In [6], the bioavailability was determined as 44%. Further, the half-life in data set [7] is 5 h. Besides, in data set [8], the IC50 came out at 550 nM.

For the compound `C[C@H]1OC(=O)[C@@H]2C[C@@H]3C[C@H](NCC#N)CC[C@H]3[C@H](/C=C/c3ccc(-c4cccc(F)c4)cn3)[C@H]12`, the results for the inhibition in data set [1], in data set [3] and in [9] were 44%, 71% and 99%, respectively. Further, in data set [2], the Kp at 8 h turned out to be 0.38. Moreover, the AUC(0-inf) in data set [4] is 6390 ng·h/mL. This compound also showed a Cmax in data set [5] of 580 ng/mL. Moreover, the bioavailability in data set [6] was determined as 98%. Also, the half-life in [7] is 6.4 h. In addition, the IC50 in data set [8] worked out at 180 nM.

On to `Cc1ccnc(N[C@@H]2CC[C@@H]3[C@@H](C2)C[C@H]2C(=O)O[C@H](C)[C@H]2[C@H]3/C=C/c2ccc(-c3cccc(F)c3)cn2)n1`, for which the inhibition was determined as 20% in data set [1], 98% in data set [3] and 101% in data set [9]. Further, the Kp at 8 h in data set [2] was 1.13. This compound returned an AUC(0-inf) in [4] of 860 ng·h/mL. Moreover, in data set [5], the concentration peaked (Cmax) at 110 ng/mL. Further, the bioavailability in data set [6] worked out at 23%. This compound also gave a half-life in data set [7] of 6.7 h. Besides, in data set [8], the IC50 came out at 610 nM.

On to `CCOC(=O)N[C@@H]1CC[C@@H]2[C@@H](C1)C[C@H]1C(=O)O[C@H](C)[C@H]1[C@H]2/C=C/c1ccc(-c2cccc(F)c2)cn1` [VORAPAXAR], for which the results for the inhibition in [1], in data set [3] and in data set [9] were 25%, 99% and 101%, respectively. The Kp at 8 h in data set [2] amounted to 1.08. In data set [4], this compound gave an area under the curve AUC(0-inf) of 3500 ng·h/mL. Moreover, the Cmax in [5] was 440 ng/mL. This compound also returned a bioavailability in data set [6] of 94%. Also, the half-life in data set [7] was 4 h. Moreover, in data set [8], the concentration for half-maximal inhibition (IC50) worked out at 250 nM.

Regarding `CCOC(=O)CN[C@@]12C[C@@H]3CCCC[C@H]3[C@H](/C=C/c3ccc(-c4cccc(F)c4)cn3)[C@@H]1[C@@H](C)OC2=O`, the inhibition in data set [1] is -5%; in data set [3], 81%; in data set [9], 101%.

On to `C[C@H]1OC(=O)[C@@H]2C[C@@H]3C[C@H](NCC(=O)O)CC[C@H]3[C@H](/C=C/c3ccc(-c4cccc(F)c4)cn3)[C@H]12`, for which the inhibition in data set [1] came to 13%; in [3] it was 34%; in [9], 48%.

Turning to `C[C@H]1OC(=O)[C@@H]2C[C@@H]3C[C@H](Nc4nc5ccccc5o4)CC[C@H]3[C@H](/C=C/c3ccc(-c4cccc(F)c4)cn3)[C@H]12`, the figures for the inhibition in [1], in [3] and in data set [9] were 3%, 28% and 81%, respectively.

In the case of `CCOC(=O)N[C@@H]1CC[C@@H]2[C@@H](C1)C[C@H]1C(=O)O[C@H](C)[C@H]1[C@H]2/C=C/c1ccc(-c2cccc(F)c2)cc1`, the inhibition in [1] was -7%; in data set [3] it was 26%; in [9], 42%.
